Measured values: EPA's ToxValDB 9.5

Assays:
Mus musculus [1] = details: oral, M/F
Mus musculus [2] = details: subchronic; duration: 90 days; oral; gavage; M/F; CD1; hepatic
Mus musculus [3] = test system: Mus musculus
Mus musculus [4] = details: subchronic, duration: 13 weeks, oral, gavage
Rattus norvegicus [5] = details: chronic; inhalation; M/F; nasal epithelial lesions
Rattus norvegicus [6] = details: inhalation, whole body, respiratory
Rattus norvegicus [7] = details: chronic; duration: 2 years; oral; drinking water; Kidney: Altered weight + Whole body: Altered weight
Cavia porcellus = details: acute; oral; Guinea Pig
Rattus norvegicus [8] = details: reproduction developmental, oral, gavage, Sprague-Dawley
Rattus norvegicus [9] = test: LC0; higher = less toxic; details: acute; oral; Sprague-Dawley
Canidae = details: acute; duration: 10 minutes; inhalation; unknown; Dog Other; Whole Body: Seizures
Rattus norvegicus [10] = details: inhalation
Coturnix japonica = details: repeat dose other; oral
Rattus norvegicus [11] = details: repeat dose other; oral
Microhyla ornata = details: short-term, whole body
[12] = subchronic, reduced rbc, packed cell volume and hemoglobin
[13] = subchronic, gavage, dyspnea, abnormal appearance, liver enlargement
[14] = chronic, duration: 104 weeks, diet, reduced hemoglobin and erythrocyte destruction
[15] = reproduction developmental, duration: 9 days, F, Crl:CD(SD), generation: P0, P0: Skin: Stained Fur + P0: Whole Body: Body Weight Change + P0: Whole Body: Convulsions + P0: Whole Body: Feed Consumption, Absolute
[16] = reproduction developmental, duration: 9 days, M/F, Crl:CD(SD), generation: F1, F1: Whole Body: Pup Weight Relative to Litter
[17] = reproduction developmental, duration: 107 days, M, Crj:CD, generation: P0, P0: Whole Body: Clonic Seizures + P0: Whole Body: Mortality
[18] = reproduction developmental, duration: 121 days, F, Crl:CD(SD), generation: P0, P0: Liver: Liver Weight, Absolute + P0: Liver: Liver Weight, Relative + P0: Pituitary: Pituitary Gland Weight, Absolute + P0: Pituitary: …
[19] = subchronic, duration: 90 days, F, Crl:CD(SD) BR, Blood: Albumin (A) + Renal: Urine Osmolality + Renal: Urine Volume (UVOL) + Whole Body: Motor Activity
[20] = subchronic, duration: 90 days, F, Crl:CD(SD) BR, Central Nervous System: Abnormal Behavior
[21] = subchronic, duration: 90 days, M, Crl:CD(SD) BR, Blood: Albumin (A) + Whole Body: Motor Activity
[22] = subchronic, duration: 90 days, M, Crl:CD(SD) BR, Central Nervous System: Abnormal Behavior

Question: How did the LOAEL (Mus musculus [1]; [12]) turn out when `c1ccc2c(c1)Cc1ccccc1-2` [Fluorene] was run?
Answer: 250 mg/kg-day

Question: What about the NOAEL (Mus musculus [1]; [12]) of the same compound?
Answer: 125 mg/kg-day

Question: What about the LOAEL (Mus musculus [2]) of the same compound?
Answer: 125 mg/kg-day

Question: And the NOAEL (Mus musculus [3]; subchronic, duration: 13 weeks, oral, gavage, Erythrocytes: Decreased counts)?
Answer: 125 mg/kg-day

Question: What does the source list for `Clc1ccc2ccccc2c1` [2-Chloronaphthalene]?
Answer: LOAEL (Mus musculus [1]; [13]): 600 mg/kg-day; NOAEL (Mus musculus [1]; [13]): 250 mg/kg-day; NOAEL (Mus musculus [4]; M/F, CD1, Respiratory, Hepatic): 250 mg/kg-day

Question: Which LOAEL (Mus musculus [1]; [14]) does the source give for `CC(CCl)OC(C)CCl` (configuration not stated) [bis(2-Chloro-1-methylethyl) ether] here?
Answer: 198 mg/kg-day

Question: And the NOAEL (Mus musculus [1]; [14])?
Answer: 35.8 mg/kg-day

Question: What about the LOAEL (Mus musculus [4]; M, SPF-ICR) of the same compound?
Answer: 9.69 mg/kg-day

Question: Which LOAEL (Rattus norvegicus [5]) does the source give for `C=COC(C)=O` [Vinyl acetate] here?
Answer: 704 mg/m3

Question: What about the NOAEL (Rattus norvegicus [5]) of the same compound?
Answer: 176 mg/m3

Question: And the NOAEL (Rattus norvegicus [6]; chronic, duration: 104 weeks, M/F, Crl:CD(SD)BR Sprague-Dawley)?
Answer: 174 mg/m3

Question: And the NOAEL (Rattus norvegicus [6]; short-term, duration: 4 weeks, M, Sprague-Dawley (Crl:CD BR))?
Answer: 703 mg/m3

Question: And the NOAEL (Rattus norvegicus [6]; short-term, duration: 5 days, M, Sprague-Dawley (Crl:CD BR))?
Answer: 703 mg/m3

Question: And the NOAEL (Mus musculus [3]; chronic, duration: 104 weeks, inhalation, intermittent, Nasal cavity: Lesions)?
Answer: 176 mg/m3

Question: And the NOAEL (Rattus norvegicus [7])?
Answer: 100 mg/kg-day

Question: For `Nc1ccc(C=Cc2ccc(N)cc2S(=O)(=O)O)c(S(=O)(=O)O)c1` [4,4'-Diamino-2,2'-stilbenedisulfonic acid], which LD50 (Cavia porcellus) is on record?
Answer: 47000 mg/kg

Question: What about the NOAEL (Rattus norvegicus [8]; generation: F0) of the same compound?
Answer: 1000 mg/kg-day

Question: And the NOAEL (Rattus norvegicus [8]; generation: F1)?
Answer: 1000 mg/kg-day

Question: And the LC0 (Rattus norvegicus [9])?
Answer: 3000 mg/kg

Question: How did the LOAEL (Canidae) turn out when `FC(C(F)C(F)(F)C(F)(F)F)C(F)(F)F` (configuration not stated) [2H,3H-Decafluoropentane] was run?
Answer: 103000 mg/m3

Question: What about the NOAEL (Canidae) of the same compound?
Answer: 51500 mg/m3

Question: What about the NOAEL (Rattus norvegicus [10]; reproduction developmental, duration: 9 days, F, Crl:CD(SD), generation: P0, P0: Ovary: Corpora Lutea + P0: Uterus: Implantation + P0: Uterus: Uterine Weight, Gravid) of the same compound?
Answer: 35800 mg/m3

Question: What about the LOAEL (Rattus norvegicus [10]; [15]) of the same compound?
Answer: 20000 mg/m3

Question: What about the NOAEL (Rattus norvegicus [10]; [15]) of the same compound?
Answer: 5170 mg/m3

Question: What about the NOAEL (Rattus norvegicus [10]; reproduction developmental, duration: 9 days, M/F, Crl:CD(SD), generation: F1, F1: Multi-Organ: Soft Tissue Examinations + F1: Skeleton: Skeletal Examinations + F1: Uterus: Resorptions, Early + F1: Uterus: Resorptions, …) of the same compound?
Answer: 35800 mg/m3

Question: What about the LOAEL (Rattus norvegicus [10]; [16]) of the same compound?
Answer: 35800 mg/m3

Question: What about the NOAEL (Rattus norvegicus [10]; [16]) of the same compound?
Answer: 20000 mg/m3

Question: And the NOAEL (Rattus norvegicus [10]; reproduction developmental, duration: 107 days, M, Crj:CD, generation: P0, P0: Liver: Liver Weight, Absolute + P0: Liver: Liver Weight, Relative + P0: Pituitary: Pituitary Gland Weight, Absolute + P0: Pituitary: …)?
Answer: 36100 mg/m3

Question: What about the LOAEL (Rattus norvegicus [10]; [17]) of the same compound?
Answer: 36100 mg/m3

Question: What about the NOAEL (Rattus norvegicus [10]; [17]) of the same compound?
Answer: 20600 mg/m3

Question: And the LOAEL (Rattus norvegicus [10]; [18])?
Answer: 36100 mg/m3

Question: And the NOAEL (Rattus norvegicus [10]; [18])?
Answer: 20600 mg/m3

Question: And the NOAEL (Rattus norvegicus [10]; reproduction developmental, duration: 121 days, F, Crl:CD(SD), generation: P0, P0: Uterus: Implantation + P0: Whole Body: Fertility Index + P0: Whole Body: Maternal Body Weight + P0: Whole Body: Maternal Body Weight …)?
Answer: 36100 mg/m3

Question: What about the NOAEL (Rattus norvegicus [10]; reproduction developmental, duration: 121 days, M/F, Crl:CD(SD), generation: F1, F1: Whole Body: Necropsy Appeared Normal + F1: Whole Body: Pup Weight Relative to Litter + F1: Whole Body: Survival + F1: Whole Body: …) of the same compound?
Answer: 36100 mg/m3

Question: What about the NOAEL (Rattus norvegicus [10]; subchronic, duration: 90 days, F, Crl:CD(SD) BR, Adrenal: Adrenal Gland Histopathology + Adrenal: Adrenal Gland Weight, Absolute + Adrenal: Adrenal Gland Weight, Relative + Brain: Brain …) of the same compound?
Answer: 36100 mg/m3

Question: What about the LOAEL (Rattus norvegicus [10]; [19]) of the same compound?
Answer: 36100 mg/m3

Question: What about the NOAEL (Rattus norvegicus [10]; [19]) of the same compound?
Answer: 20600 mg/m3

Question: And the LOAEL (Rattus norvegicus [10]; [20])?
Answer: 20600 mg/m3

Question: And the NOAEL (Rattus norvegicus [10]; [20])?
Answer: 5150 mg/m3

Question: What about the NOAEL (Rattus norvegicus [10]; subchronic, duration: 90 days, M, Crl:CD(SD) BR, Adrenal: Adrenal Gland Histopathology + Adrenal: Adrenal Gland Weight, Absolute + Adrenal: Adrenal Gland Weight, Relative + Brain: Brain …) of the same compound?
Answer: 36100 mg/m3

Question: What about the LOAEL (Rattus norvegicus [10]; [21]) of the same compound?
Answer: 36100 mg/m3

Question: What about the NOAEL (Rattus norvegicus [10]; [21]) of the same compound?
Answer: 20600 mg/m3

Question: What about the LOAEL (Rattus norvegicus [10]; [22]) of the same compound?
Answer: 20600 mg/m3

Question: And the NOAEL (Rattus norvegicus [10]; [22])?
Answer: 5150 mg/m3

Question: Which results are given for `CC(=O)[O-].CC(=O)[O-].[Pb+2]` [Lead acetate]?
Answer: LOAEL (Coturnix japonica): 11.3 mg/kg-day; NOAEL (Coturnix japonica): 1.13 mg/kg-day; LOAEL (Rattus norvegicus [11]): 80 mg/kg-day; NOAEL (Rattus norvegicus [11]): 8 mg/kg-day

Question: For `Cc1cc(C(C)(C)c2cc(C)c(O)c(C)c2)cc(C)c1O` [4,4'-Propane-2,2-diylbis(2,6-dimethylphenol)], which LOEL (Microhyla ornata; duration: 9 day, M/F, DNA fragmentation) is on record?
Answer: 1 µM

Question: And the LOEL (Microhyla ornata; duration: 11 day, EGFP activitiy)?
Answer: 1 µM
